In the supplement of paper PMC10307832:

Assays:
Test in all cases: relative viability (nuclei count vs DMSO), 5 days (fraction); higher = more cells survive
[1] = compound: CCN(CCO)CCCC(C)Nc1ccnc2cc(Cl)ccc12 [Hydroxychloroquine] + Cc1nc(NC(=O)N2CCC[C@H]2C(N)=O)sc1-c1ccnc(C(C)(C)C(F)(F)F)c1 [Alpelisib] (partner 2 µM)
Method in brief: (§1)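 For relative viability, nuclei counts in treated wells were divided by those in vehicle wells. Lung cancer cell lines had been pin-tool dosed in 1536-well plates the day after seeding and cultured for 5 days, then fixed and stained in one step (final 0.05% Triton X-100, 1% formaldehyde, 1 ug/ml Hoechst) and imaged at 4×. Doses were one drug alone or a fixed anchor-drug dose plus five library-drug doses (not always all listed) in √10 steps, and values are duplicate-plate medians.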

[2] = compound: CCN(CCO)CCCC(C)Nc1ccnc2cc(Cl)ccc12 [Hydroxychloroquine] + COc1cc2c(Oc3ccc(NC(=O)C4(C(=O)Nc5ccc(F)cc5)CC4)cc3F)ccnc2cc1OCCCN1CCOCC1 [Foretinib] (partner 0.25 µM)
Method in brief: as §1

[3] = compound: CCN(CCO)CCCC(C)Nc1ccnc2cc(Cl)ccc12 [Hydroxychloroquine] + O=C(c1cc(Cc2n[nH]c(=O)c3ccccc23)ccc1F)N1CCN(C(=O)C2CC2)CC1 [Olaparib] (partner 8 µM)
Method in brief: as §1

[4] = compound: CCN(CCO)CCCC(C)Nc1ccnc2cc(Cl)ccc12 [Hydroxychloroquine] + Nc1nc2[nH]cc(CCc3ccc(C(=O)N[C@@H](CCC(=O)O)C(=O)O)cc3)c2c(=O)[nH]1 [Pemetrexed] (partner 0.2 µM)
Method in brief: as §1

Cell Line | relative viability ([1]; first compound 0.5 µM) | relative viability ([1]; first compound 5 µM) | relative viability ([1]; first compound 15.81 µM) | relative viability ([1]; first compound 50 µM) | relative viability ([2]; first compound 0.5 µM) | relative viability ([2]; first compound 1.581 µM) | relative viability ([2]; first compound 15.81 µM) | relative viability ([2]; first compound 50 µM) | relative viability ([3]; first compound 0.5 µM) | relative viability ([3]; first compound 1.581 µM) | relative viability ([3]; first compound 5 µM) | relative viability ([3]; first compound 15.81 µM) | relative viability ([3]; first compound 50 µM) | relative viability ([4]; first compound 0.5 µM) | relative viability ([4]; first compound 1.581 µM) | relative viability ([4]; first compound 5 µM) | relative viability ([4]; first compound 15.81 µM) | relative viability ([4]; first compound 50 µM) | relative viability ([1]; first compound 1.581 µM) | relative viability ([2]; first compound 5 µM)
LK-2 | 1.02 | 1.26 | 1.27 | 1.24 | 1.31 | 1.41 | 1.28 | 0.955 | 0.734 | 0.719 | 0.659 | 0.648 | 0.874 | 0.299 | 0.261 | 0.256 | 0.274 | 0.206 |  | 
NCI-H1993 | 0.632 | 0.789 | 0.71 | 0.692 | 0.867 | 0.711 | 0.887 | 0.79 | 1.24 | 1.04 | 1.14 | 0.61 | 1.11 | 0.577 | 0.507 | 0.623 | 0.601 | 0.597 | 0.712 | 0.735
NCI-H1648 |  |  |  |  |  |  |  |  | 0.766 | 0.965 | 1.01 | 1.06 | 0.926 | 0.844 | 0.785 | 0.734 | 0.859 | 0.694 |  | 
NCI-H1650 |  |  |  |  | 0.996 | 1.01 | 0.999 | 1.15 | 0.804 | 0.781 | 0.788 | 0.881 | 0.917 | 0.337 | 0.331 | 0.342 | 0.397 | 0.346 |  | 1.02
SW 900 |  |  |  |  | 0.941 | 0.824 | 0.816 | 0.869 | 0.894 | 0.852 | 0.88 | 0.819 | 0.75 | 0.43 | 0.47 | 0.448 | 0.457 | 0.444 |  | 0.866
IA-LM | 0.878 | 0.811 | 0.607 | 0.887 | 1.15 | 1.31 | 1.26 | 1.27 | 0.756 | 0.887 | 0.8 | 0.892 | 0.754 |  |  |  |  |  | 0.377 | 1.12
NCI-H1563 | 0.908 | 1 | 0.888 | 0.871 | 0.886 | 0.804 | 0.825 | 0.965 |  |  |  |  |  | 0.888 | 0.692 | 0.724 | 0.78 | 0.875 | 0.877 | 0.88
HCC-44 | 0.815 | 0.86 | 0.922 | 0.902 |  |  |  |  | 0.964 | 1.02 | 1.03 | 1.01 | 1.04 | 0.635 | 0.709 | 0.653 | 0.655 | 0.659 | 0.838 | 
ABC-1 | 1.27 | 0.924 | 0.949 | 0.942 | 0.761 | 0.984 | 1.25 | 1.28 | 0.98 | 0.889 | 0.797 | 0.847 | 0.727 |  |  |  |  |  | 1.03 | 1.18
NCI-H522 |  |  |  |  |  |  |  |  | 0.578 |  | 0.68 | 0.642 | 0.608 | 1.02 |  | 1.39 | 0.974 | 0.98 |  | 
NCI-H1792 | 0.677 | 0.65 | 0.392 | 0.664 |  |  |  |  | 0.461 | 0.413 | 0.195 | 0.439 | 0.433 | 0.694 | 0.831 | 0.755 | 0.641 | 0.859 | 0.698 | 
